In patent US9434735B2, “Amorphous form of 4-((4-(cyclopentyloxy)-5-(2-methylbenzo[d]oxazol-6-yl)-7h-pyrrolo[2,3-d]pyrimidin-2-yl)amino)-3-methoxy-n-methylbenzamide, compositions thereof and methods of their use” (Signal Pharmaceuticals, LLC, priority 2014, dated 2016):

Columns and labels:
Type in all cases: physicochemical
[1] = Dissolution of amorphous form in reconstitution formulations
[2] = Solubility of spray-dried amorphous form in ethanol; conditions: amorphous form obtained by spray-drying
Protocol: An amorphous form of Compound 1 was obtained from a spray-drying process of Compound 1 as depicted in FIG. 5. The spray-drying process comprised: (1) mixing Compound 1 with methanol at 25° C. to yield a suspension; (2) heating to 121° C.; (3) spray-drying under the conditions in Table 1 or Table 2 to yield an amorphous solid form; and (4) collecting the resulting solids. Alternatively, the spray drying process comprised: (1) mixing Compound 1 with acetone to yield a solution; (2) spray-drying under the conditions in Table 3 to yield an amorphous solid form; and (3) collecting the resulting solids.

[3] = Stability study of the amorphous form (HPLC purity, XRPD); conditions: over three months; HPLC purity (FIG. 6), XRPD (FIG. 7)
Protocol: FIG. 6 depicts a stability study of the amorphous form based on its HPLC purity over 3 months. FIG. 7 depicts a stability study of the amorphous form based on its XRPD over 3 months. Solid samples were analyzed by XRPD. XRPD analysis was conducted on a PANalytical Empyrean or a Thermo ARL X'TRA X-ray powder diffractometer using Cu Kα radiation at 1.54 Å.

Q: With `CNC(=O)c1ccc(Nc2nc(OC3CCCC3)c3c(-c4ccc5nc(C)oc5c4)c[nH]c3n2)c(OC)c1` [amorphous Compound 1, 4-((4-(cyclopentyloxy)-5-(2-methylbenzo[d]oxazol-6-yl)-7H-pyrrolo[2,3-d]pyrimidin-2-yl)amino)-3-methoxy-N-methylbenzamide] as the molecule, how does the “Dissolution Time” value ([1]; 17 mg amorphous Compound 1, 0.105 g EtOH, 0.656 g PEG-300, 0.239 g Saline) read?
A: 1 min

Q: And the “Dissolution Time” value ([1]; #1 4.6 mL EtOH added to 700 mg amorphous Compound 1, #2 26.3 mL (25.1:1.2) PEG-300:Ethanol, #3 10.3 mL Saline)?
A: 1 min

Q: What about the “Dissolution Time” value ([1]; #1 PEG-300/EtOH, #2 Saline) of the same molecule?
A: 9 min

Q: What about the Solubility in ethanol [2] of the same molecule?
A: readily soluble

Q: And the “Stability (HPLC purity and XRPD)” value [3]?
A: chemically and physically stable
